In this assay the test system is mitochondrial membrane potential. Kind of assay: Mitochondrial membrane potential with fluorescent dye JC-1. The assay is classed as cell-based, mouse. The note with it: microscopy; FIG. 15. An excerpt: For MA-Cell, and CPC prepared in Example 1, the mitochondrial membrane potential was examined using fluorescent dye JC-1 (Invitrogen) in accordance with manufacturer's protocol. JC-1 emits red fluorescence with a wavelength of 590 nm when accumulating on polarized mitochondria, and JC-1 is diffused into the cytoplasm to emit green fluorescence with a wavelength of 529 nm when mitochondria are depolarized (the membrane potential is eliminated).
Further, for 19 cells for each of MA-Cell and CPC, a ratio of the fluorescence intensity of polarized mitochondria (red, Dimer) to the fluorescence intensity of depolarized mitochondria (green, Monomer) (Dimer/Monomer ratio) was calculated (FIG. 16).

On to `N#CC(C#N)=NNc1ccc(OC(F)(F)F)cc1` [FCCP], for which the “JC-1 red fluorescence (polarized mitochondria)” value is listed as “red fluorescence was substantially eliminated”.

The values are drawn from patent US20200032214A1, “METHOD FOR PRODUCING MYOCARDIAL STEM CELL USED FOR TREATMENT AND/OR PREVENTION OF CARDIAC ARREST” (LUCA Science Inc., priority 2016, published 2020).
